For 3 molecules, kinase still bound, per cent of control, IC50 and Kd results are on record in the kinase profiling compilation of Christmann-Franck et al. (2016).

For one assay, the target named is CHEK1 (human) (UniProt O14757). Briefly: KINOMEscan competition binding. Particulars: compound 10.0 µM.
The target of the next assay is RPS6KA6 KD2 (human) (UniProt Q9UK32). Briefly: KINOMEscan competition binding. Particulars: compound 10.0 µM.
For the next assay, the target named is MYLK (human) (UniProt Q15746). Briefly: KINOMEscan competition binding. Particulars: compound 10.0 µM.
Chain of MYLK (human) (Q15746 whole entry, looked up): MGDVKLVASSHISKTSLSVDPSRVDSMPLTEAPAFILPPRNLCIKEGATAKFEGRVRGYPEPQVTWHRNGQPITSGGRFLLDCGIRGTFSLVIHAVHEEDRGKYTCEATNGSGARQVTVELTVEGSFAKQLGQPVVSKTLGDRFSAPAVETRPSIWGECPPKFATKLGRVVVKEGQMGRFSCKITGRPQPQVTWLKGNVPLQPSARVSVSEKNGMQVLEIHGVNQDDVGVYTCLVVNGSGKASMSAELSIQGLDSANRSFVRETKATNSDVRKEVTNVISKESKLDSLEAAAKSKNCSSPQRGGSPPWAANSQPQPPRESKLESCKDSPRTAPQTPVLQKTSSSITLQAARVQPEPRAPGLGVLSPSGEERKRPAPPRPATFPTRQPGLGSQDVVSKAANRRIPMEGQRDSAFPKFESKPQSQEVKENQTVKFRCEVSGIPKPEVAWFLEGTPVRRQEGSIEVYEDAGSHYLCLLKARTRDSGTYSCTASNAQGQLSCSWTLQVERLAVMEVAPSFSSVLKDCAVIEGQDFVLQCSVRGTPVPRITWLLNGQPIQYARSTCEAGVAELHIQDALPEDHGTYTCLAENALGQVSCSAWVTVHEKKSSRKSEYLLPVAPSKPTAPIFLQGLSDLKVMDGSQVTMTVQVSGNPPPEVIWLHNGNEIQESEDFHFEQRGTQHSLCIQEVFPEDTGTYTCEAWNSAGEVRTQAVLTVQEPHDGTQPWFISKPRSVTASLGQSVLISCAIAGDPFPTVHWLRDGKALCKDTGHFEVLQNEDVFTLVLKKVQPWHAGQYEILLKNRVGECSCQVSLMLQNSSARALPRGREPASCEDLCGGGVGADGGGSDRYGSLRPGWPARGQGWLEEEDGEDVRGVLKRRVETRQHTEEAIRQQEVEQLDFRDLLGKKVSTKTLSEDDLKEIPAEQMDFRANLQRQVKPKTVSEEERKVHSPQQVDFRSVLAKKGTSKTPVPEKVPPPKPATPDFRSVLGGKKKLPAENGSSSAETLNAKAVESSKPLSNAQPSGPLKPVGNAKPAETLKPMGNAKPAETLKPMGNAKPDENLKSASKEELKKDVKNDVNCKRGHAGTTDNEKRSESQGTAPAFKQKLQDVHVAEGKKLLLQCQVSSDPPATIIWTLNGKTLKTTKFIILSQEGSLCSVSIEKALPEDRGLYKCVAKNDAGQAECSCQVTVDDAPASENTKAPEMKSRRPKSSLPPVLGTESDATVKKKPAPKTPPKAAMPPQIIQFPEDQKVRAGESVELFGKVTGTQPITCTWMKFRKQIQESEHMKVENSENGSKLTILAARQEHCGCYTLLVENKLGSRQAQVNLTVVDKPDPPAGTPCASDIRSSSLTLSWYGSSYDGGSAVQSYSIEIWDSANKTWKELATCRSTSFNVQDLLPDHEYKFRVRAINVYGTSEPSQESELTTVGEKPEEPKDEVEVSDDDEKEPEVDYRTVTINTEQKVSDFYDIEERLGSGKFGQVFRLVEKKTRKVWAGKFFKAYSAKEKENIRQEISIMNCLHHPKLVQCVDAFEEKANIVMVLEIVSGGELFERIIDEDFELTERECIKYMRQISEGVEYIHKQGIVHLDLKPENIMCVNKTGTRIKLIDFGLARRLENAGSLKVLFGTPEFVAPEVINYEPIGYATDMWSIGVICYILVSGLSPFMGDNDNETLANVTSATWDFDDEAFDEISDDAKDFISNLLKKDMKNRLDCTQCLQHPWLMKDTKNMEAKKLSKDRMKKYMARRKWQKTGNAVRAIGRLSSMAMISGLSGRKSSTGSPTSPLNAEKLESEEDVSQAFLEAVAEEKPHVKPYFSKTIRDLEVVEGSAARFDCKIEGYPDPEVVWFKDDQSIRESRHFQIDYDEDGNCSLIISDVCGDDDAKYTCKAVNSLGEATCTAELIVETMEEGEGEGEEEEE
In the next assay the target is RPS6KA2 KD2 (human) (UniProt Q15349). As to the kind of experiment: KINOMEscan competition binding. Particulars: compound 10.0 µM.
A further assay concerns the target PLK3 (human) (UniProt Q9H4B4). As to the kind of experiment: KINOMEscan competition binding. Particulars: compound 10.0 µM.
A further assay deals with DCLK2 (human) (UniProt Q8N568). As to the kind of experiment: KINOMEscan competition binding. Particulars: compound 10.0 µM.
Another assay has as its target GAK (human) (UniProt O14976). As to the kind of experiment: KINOMEscan competition binding. Particulars: compound 10.0 µM.
The next assay addresses RPS6KA1 KD2 (human) (UniProt Q15418). As to the kind of experiment: KINOMEscan competition binding. Particulars: compound 10.0 µM.
In a further assay the target is PRKD1 (human) (UniProt Q15139). Briefly: KINOMEscan competition binding. Particulars: compound 10.0 µM.
The target of the next assay is RPS6KA4 KD2 (human) (UniProt O75676). As to the kind of experiment: KINOMEscan competition binding. Particulars: compound 10.0 µM.
The target in a further assay is PLK1 (human) (UniProt P53350). As to the kind of experiment: KINOMEscan competition binding. Particulars: compound 10.0 µM.
Chain of PLK1 (human) (P53350 whole entry, looked up): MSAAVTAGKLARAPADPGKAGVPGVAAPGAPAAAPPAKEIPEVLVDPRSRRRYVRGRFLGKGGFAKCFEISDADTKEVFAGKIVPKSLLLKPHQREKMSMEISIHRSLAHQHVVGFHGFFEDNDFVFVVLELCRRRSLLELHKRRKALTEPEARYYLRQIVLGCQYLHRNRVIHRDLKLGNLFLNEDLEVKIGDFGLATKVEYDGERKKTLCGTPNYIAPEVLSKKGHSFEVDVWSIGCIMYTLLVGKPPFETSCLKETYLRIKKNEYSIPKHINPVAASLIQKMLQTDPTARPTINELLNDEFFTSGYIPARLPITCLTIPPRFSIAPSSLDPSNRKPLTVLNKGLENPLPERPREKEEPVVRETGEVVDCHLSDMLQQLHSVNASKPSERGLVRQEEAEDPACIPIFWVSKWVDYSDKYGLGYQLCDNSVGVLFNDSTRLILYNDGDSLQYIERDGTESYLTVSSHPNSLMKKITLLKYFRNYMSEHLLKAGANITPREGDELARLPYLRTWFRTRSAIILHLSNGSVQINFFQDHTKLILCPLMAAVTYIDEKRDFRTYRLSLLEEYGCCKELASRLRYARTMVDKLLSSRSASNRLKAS
The test system of assay [1] is EIF2AK4 KD2 (human), Q9P2K8 [S808G]. As to the kind of experiment: KINOMEscan competition binding. Particulars: compound 10.0 µM.
For another assay, the target named is STK33 (human) (UniProt Q9BYT3). As to the kind of experiment: KINOMEscan competition binding. Particulars: compound 10.0 µM.
Chain of STK33 (human) (Q9BYT3 whole entry, looked up): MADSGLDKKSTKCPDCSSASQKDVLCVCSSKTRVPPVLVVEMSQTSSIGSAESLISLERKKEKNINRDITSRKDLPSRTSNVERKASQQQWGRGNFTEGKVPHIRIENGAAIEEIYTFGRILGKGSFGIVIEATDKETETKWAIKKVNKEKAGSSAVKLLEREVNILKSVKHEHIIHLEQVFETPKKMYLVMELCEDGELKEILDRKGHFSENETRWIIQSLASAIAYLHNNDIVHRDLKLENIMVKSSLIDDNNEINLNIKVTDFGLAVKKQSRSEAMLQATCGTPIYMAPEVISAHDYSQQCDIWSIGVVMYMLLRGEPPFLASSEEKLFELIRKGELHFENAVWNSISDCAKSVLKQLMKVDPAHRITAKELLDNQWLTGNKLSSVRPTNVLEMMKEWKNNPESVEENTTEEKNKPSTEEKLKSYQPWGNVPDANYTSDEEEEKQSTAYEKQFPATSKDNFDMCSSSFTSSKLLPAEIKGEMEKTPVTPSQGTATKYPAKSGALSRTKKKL
Another assay addresses PRKD2 (human) (UniProt Q9BZL6). Briefly: KINOMEscan competition binding. Particulars: compound 10.0 µM.
A further assay concerns the target DCLK1 (human) (UniProt O15075). As to the kind of experiment: KINOMEscan competition binding. Particulars: compound 10.0 µM.
For assay [2], the target named is TTK (human) (UniProt P33981). As to the kind of experiment: KINOMEscan competition binding. Particulars: for kinase still bound, per cent of control: compound 10.0 µM.
Chain of TTK (human) (P33981 whole entry, looked up): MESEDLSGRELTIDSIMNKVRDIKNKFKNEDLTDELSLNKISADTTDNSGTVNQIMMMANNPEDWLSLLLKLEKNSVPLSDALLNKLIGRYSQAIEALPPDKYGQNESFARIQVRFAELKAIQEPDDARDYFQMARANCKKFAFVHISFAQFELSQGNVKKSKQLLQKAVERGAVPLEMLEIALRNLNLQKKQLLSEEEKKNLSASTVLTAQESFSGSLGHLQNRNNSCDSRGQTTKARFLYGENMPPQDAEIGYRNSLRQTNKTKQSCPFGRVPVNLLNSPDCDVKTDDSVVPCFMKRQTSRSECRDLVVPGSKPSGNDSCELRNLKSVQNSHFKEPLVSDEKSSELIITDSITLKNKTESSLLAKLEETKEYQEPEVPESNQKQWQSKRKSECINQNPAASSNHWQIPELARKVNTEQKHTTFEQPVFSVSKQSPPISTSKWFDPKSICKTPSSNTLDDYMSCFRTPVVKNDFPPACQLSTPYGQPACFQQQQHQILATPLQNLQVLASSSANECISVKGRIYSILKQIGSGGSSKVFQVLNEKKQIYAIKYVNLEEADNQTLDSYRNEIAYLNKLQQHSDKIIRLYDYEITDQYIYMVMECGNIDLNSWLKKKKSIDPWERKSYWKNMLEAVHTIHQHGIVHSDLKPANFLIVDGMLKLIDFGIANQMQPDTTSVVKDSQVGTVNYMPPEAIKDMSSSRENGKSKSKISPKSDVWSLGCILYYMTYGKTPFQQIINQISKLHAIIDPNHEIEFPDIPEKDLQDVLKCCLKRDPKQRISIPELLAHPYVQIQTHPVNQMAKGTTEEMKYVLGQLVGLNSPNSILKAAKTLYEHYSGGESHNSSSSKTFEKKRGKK
Another assay deals with PLK4 (human) (UniProt O00444). Briefly: KINOMEscan competition binding. Particulars: compound 10.0 µM.
The target in another assay is PTK2 (human) (UniProt Q05397). As to the kind of experiment: KINOMEscan competition binding. Particulars: compound 10.0 µM.
The target in another assay is PRKD3 (human) (UniProt O94806). Briefly: KINOMEscan competition binding. Particulars: compound 10.0 µM.
The target of a further assay is SLK (human) (UniProt Q9H2G2). As to the kind of experiment: KINOMEscan competition binding. Particulars: compound 10.0 µM.
A further assay concerns the target ULK2 (human) (UniProt Q8IYT8). As to the kind of experiment: KINOMEscan competition binding. Particulars: compound 10.0 µM.
In the next assay the target is CAMKK2 (human) (UniProt Q96RR4). Briefly: KINOMEscan competition binding. Particulars: compound 10.0 µM.
Another assay deals with MINK1 (human) (UniProt Q8N4C8). Briefly: KINOMEscan competition binding. Particulars: compound 10.0 µM.
Another assay has as its target ULK1 (human) (UniProt O75385). As to the kind of experiment: KINOMEscan competition binding. Particulars: compound 10.0 µM.
Another assay concerns the target FER (human) (UniProt P16591). As to the kind of experiment: KINOMEscan competition binding. Particulars: compound 10.0 µM.
The target of another assay is INSRR (human) (UniProt P14616). Briefly: KINOMEscan competition binding. Particulars: compound 10.0 µM.
The target of the next assay is PTK2B (human) (UniProt Q14289). Briefly: KINOMEscan competition binding. Particulars: compound 10.0 µM.
The next assay concerns the target ALK (human) (UniProt Q9UM73). As to the kind of experiment: KINOMEscan competition binding. Particulars: compound 10.0 µM.
Assay [3] concerns the target TTK (human) (UniProt P33981). As to the kind of experiment: SelectScreen, TR FRET. In general terms: In TR-FRET formats the signal depends on donor and acceptor labels being close together.
Assay [4] concerns EGFR (human), P00533 [P753S; 747-752 del]. Briefly: KINOMEscan competition binding. Particulars: compound 10.0 µM.
In assay [5] the test system is EGFR (human), P00533 [752-759 del]. Briefly: KINOMEscan competition binding. Particulars: compound 10.0 µM.
In assay [6] the test system is EGFR (human), P00533 [A750P; 747-749 del]. Briefly: KINOMEscan competition binding. Particulars: compound 10.0 µM.
For the next assay, the target named is TNK1 (human) (UniProt Q13470). Briefly: KINOMEscan competition binding. Particulars: compound 10.0 µM.
Assay [7] deals with EGFR (human), P00533 [G719C; 746-750 del]. As to the kind of experiment: KINOMEscan competition binding. Particulars: compound 10.0 µM.
Assay [8] deals with EGFR (human), P00533 [747-751 del / S ins]. Briefly: KINOMEscan competition binding. Particulars: compound 10.0 µM.
The target in a further assay is DAPK2 (human) (UniProt Q9UIK4). As to the kind of experiment: KINOMEscan competition binding. Particulars: compound 10.0 µM.
Chain of DAPK2 (human) (Q9UIK4 whole entry, looked up): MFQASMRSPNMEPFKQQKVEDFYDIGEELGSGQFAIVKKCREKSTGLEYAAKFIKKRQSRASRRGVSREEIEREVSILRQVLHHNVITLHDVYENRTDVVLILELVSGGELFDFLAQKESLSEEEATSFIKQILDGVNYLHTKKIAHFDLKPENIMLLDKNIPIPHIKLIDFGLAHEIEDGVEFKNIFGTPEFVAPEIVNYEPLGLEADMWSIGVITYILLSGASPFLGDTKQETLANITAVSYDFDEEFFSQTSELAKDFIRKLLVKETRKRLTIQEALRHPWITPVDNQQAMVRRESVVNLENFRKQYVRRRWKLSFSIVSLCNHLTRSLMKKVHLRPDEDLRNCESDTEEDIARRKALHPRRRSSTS

Chain of PLK3 (human) (Q9H4B4 whole entry, looked up): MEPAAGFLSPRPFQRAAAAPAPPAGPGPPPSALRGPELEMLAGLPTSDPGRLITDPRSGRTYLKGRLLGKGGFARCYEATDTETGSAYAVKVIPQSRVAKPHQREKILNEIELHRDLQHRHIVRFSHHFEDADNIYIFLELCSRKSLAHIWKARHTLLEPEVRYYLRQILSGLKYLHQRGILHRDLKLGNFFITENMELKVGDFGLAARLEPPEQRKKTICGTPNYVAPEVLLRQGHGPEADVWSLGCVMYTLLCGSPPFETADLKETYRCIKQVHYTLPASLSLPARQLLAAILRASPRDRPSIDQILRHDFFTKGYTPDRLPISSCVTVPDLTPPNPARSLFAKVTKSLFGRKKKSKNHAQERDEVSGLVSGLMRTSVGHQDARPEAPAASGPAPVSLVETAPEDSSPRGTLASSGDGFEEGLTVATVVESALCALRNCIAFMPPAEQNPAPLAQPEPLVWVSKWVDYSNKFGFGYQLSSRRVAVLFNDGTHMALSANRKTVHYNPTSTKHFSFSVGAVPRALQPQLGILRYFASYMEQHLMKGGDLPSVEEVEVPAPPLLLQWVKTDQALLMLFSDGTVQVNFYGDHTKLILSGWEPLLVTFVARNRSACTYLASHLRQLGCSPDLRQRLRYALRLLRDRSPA

As for `COc1cc(N2CCC(N3CCN(C)CC3)CC2)ccc1Nc1ncc2c(n1)N1CCCC1CC(=O)N2C` (stereo not drawn), the kinase still bound, per cent of control on CHEK1 (human) is 29%; at RPS6KA6 KD2 (human) it was 17%; on MYLK (human) it was 24%; on RPS6KA2 KD2 (human) it was 13%; at PLK3 (human), 0.95%; at DCLK2 (human), 25%. For the same molecule, the kinase still bound, per cent of control on GAK (human) was 2.6%; on RPS6KA1 KD2 (human), 28%; at PRKD1 (human), 19%; at RPS6KA4 KD2 (human), 30%; on PLK1 (human) it was 1.8%; in [1], 32%. Further, the kinase still bound, per cent of control turned out to be 7% at STK33 (human); 23% on PRKD2 (human); 0.65% at DCLK1 (human); 2.4% on TTK (human) [2]; 26% on PLK4 (human).

`COc1cc(N2CCN(C)CC2)ccc1Nc1ncc2c(n1)N(C1CCCC1)C(C)CC(=O)N2C` (stereo not drawn): the kinase still bound, per cent of control at RPS6KA6 KD2 (human) stood at 16%; at PTK2 (human), 0.95%; on MYLK (human), 7.6%; at RPS6KA2 KD2 (human), 12%; on PRKD3 (human), 14%; at SLK (human) it was 3.6%. Further, the kinase still bound, per cent of control was 20% on PLK3 (human); 1.3% at ULK2 (human); 4.5% on DCLK2 (human); 24% at CAMKK2 (human); 1.2% at GAK (human); 24% on PRKD1 (human). For the same molecule, the kinase still bound, per cent of control at PLK1 (human) was 9%; on STK33 (human) it was 5.4%; on MINK1 (human) it was 31%; on PRKD2 (human), 29%; on DCLK1 (human) it was 1.4%; on ULK1 (human) it was 19%. Also, the kinase still bound, per cent of control amounted to 1.4% at TTK (human) [2]; 25% at FER (human); 33% on INSRR (human); 4.6% on PTK2B (human); 6.6% at ALK (human).

As to `COc1cc(N2CCC(O)CC2)ccc1Nc1ncc2c(n1)N(C1CCCC1)CCC(=O)N2C`, the IC50 (commonly the concentration that inhibits the measured activity by half) against TTK (human) [3] turned out to be 342 nM. The kinase still bound, per cent of control on PTK2 (human) is 6.8%; in assay [4], 33%; on MYLK (human), 25%; at PLK3 (human), 0%; in [5], 28%; on GAK (human), 1.8%. The kinase still bound, per cent of control on PLK1 (human) is 3%; at STK33 (human) it was 11%; in assay [6], 22%; at TNK1 (human) it was 26%; in assay [7] it was 32%; at TTK (human) [2], 3.2%. The kinase still bound, per cent of control in assay [8] amounted to 29%; at PLK4 (human), 8.3%; on PTK2B (human), 18%; at DAPK2 (human), 31%. In addition, the Kd (usually the equilibrium constant for the complex coming apart) at TTK (human) [2] is 28.4 nM.
